Assay results taken from US20070093416A1, “Human beta-defensin secretion promoter” (priority 2003, published 2007).

Test system: β-defensin-2
Experiment: β-Defensin Secretion Promotion Confirmatory Test-3 (Concentration Dependency)
Assay type: in vivo, human
Settings: 3 healthy adults
Protocol: To evaluate β-defensin secretion promotion effects and concentration dependency of an organic acid, the following tests were conducted using 3 healthy adults as subjects. Saliva secreted for 3 minutes from rested subjects was collected by a spitting method (hereunder, this is referred to as the control). Thereafter, 1 ml of 0.01 wt % malic acid (amount of malic acid ingested: 0.1 mg) was placed in the oral cavity, held for one minute, and then collected together with the secreted saliva. The concentration of β-defensin-2 in the saliva was measured by ELISA, and the amount of β-defensin-2 secreted over one minute using 0.1 mg of malic acid was calculated based on the formula below. Note that the saliva amount (ml) in the formula below was calculated based on the weight of the collected saliva (g) assuming 1 g of saliva=1 ml of saliva. The same test was conducted, respectively, using 0.05, 0.1, 0.2, 0.5, or 1 wt % malic acid aqueous solution (amounts of ingested: 0.5, 1, 2, 5, and 10 mg). [table]

O=C(O)CC(O)C(=O)O (centres unmarked) [malic acid]
amount of β-defensin-2 secreted in saliva (1 ml of 0.01-1 wt % malic acid aqueous solution (0.1-10 mg) held in oral cavity for one minute, FIG. 3): increases depending on the concentration
human β-defensin-2 secretion induction effect (concentration of 0.01% (amount ingested: 0.1 mg), 1 ml held in oral cavity for one minute): has a human β-defensin-2 secretion induction effect
